Laboratory results published in PubChem BioAssay AID330 (DTP/NCI, 2004).
Several values for one entry are separate records, joined by “and”; a condition that tells them apart may be missing. Identical values can stand only once. Inconclusive results and toxic doses are left out.

Test system: P388 leukemia ip, CD2F1 mice, survival T/C
Assay: NCI In Vivo Anticancer Drug Screen. Data for tumor model P388 Leukemia (intraperitoneal) in CD2F1 (CDF1) mice
Conditions: endpoint: median survival time, higher = longer survival
In short: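 Mice carrying the transplanted tumor received test compound or vehicle. Survival was recorded in each group, and the value is the treated-group measurement divided by that of the vehicle-treated control group.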

[1] = dose: 25.0 mg/kg/injection, schedule: Q01DX009 (ip), vehicle: saline with Tween-80
[2] = dose: 50.0 mg/kg/injection, schedule: Q01DX009 (ip), vehicle: saline with Tween-80
[3] = dose: 100.0 mg/kg/injection, schedule: Q01DX009 (ip), vehicle: saline with Tween-80
[4] = dose: 50.0 mg/kg/injection, schedule: Q01DX005 (ip), vehicle: saline with Tween-80
[5] = dose: 100.0 mg/kg/injection, schedule: Q01DX005 (ip), vehicle: saline with Tween-80
[6] = dose: 200.0 mg/kg/injection, schedule: Q01DX005 (ip), vehicle: saline with Tween-80
[7] = dose: 12.5 mg/kg/injection, schedule: Q01DX005 (ip), vehicle: Klucel (hydroxypropylcellulose) (HPC)
[8] = dose: 25.0 mg/kg/injection, schedule: Q01DX005 (ip), vehicle: Klucel (hydroxypropylcellulose) (HPC)
[9] = dose: 50.0 mg/kg/injection, schedule: Q01DX005 (ip), vehicle: Klucel (hydroxypropylcellulose) (HPC)
[10] = dose: 200.0 mg/kg/injection, schedule: Q01DX009 (ip), vehicle: saline with Tween-80
[11] = dose: 400.0 mg/kg/injection, schedule: Q01DX009 (ip), vehicle: saline with Tween-80
[12] = dose: 50.0 mg/kg/injection, schedule: Q01DX009 (ip), vehicle: suspension in saline
[13] = dose: 100.0 mg/kg/injection, schedule: Q01DX009 (ip), vehicle: suspension in saline
[14] = dose: 200.0 mg/kg/injection, schedule: Q01DX009 (ip), vehicle: suspension in saline
[15] = dose: 100.0 mg/kg/injection, schedule: Q01DX005 (ip), vehicle: Klucel (hydroxypropylcellulose) (HPC)
[16] = dose: 3.13 mg/kg/injection, schedule: Q01DX009 (ip), vehicle: saline with Tween-80
[17] = dose: 6.25 mg/kg/injection, schedule: Q01DX009 (ip), vehicle: saline with Tween-80
[18] = dose: 12.5 mg/kg/injection, schedule: Q01DX009 (ip), vehicle: saline with Tween-80
[19] = dose: 50.0 mg/kg/injection, schedule: Q01DX009 (ip), vehicle: saline
[20] = dose: 100.0 mg/kg/injection, schedule: Q01DX009 (ip), vehicle: saline
[21] = dose: 200.0 mg/kg/injection, schedule: Q01DX009 (ip), vehicle: saline

## CC[As](CCO)SC1CC(OC(=O)c2ccccc2)C(OC(=O)c2ccccc2)C(COC(=O)c2ccccc2)O1 (configuration not stated)
[1]
  T/C: 110 % of control
dose: 50.0 mg/kg/injection, schedule: Q01DX009 (ip), vehicle: saline + alcohol
  T/C: 124 % of control
[2]
  T/C: 96 % of control
[3]
  T/C: 110 % of control

## NC(=S)c1ccc(C=Nc2ccccc2)cc1
dose: 50.0 mg/kg/injection, schedule: Q01DX001 (ip), vehicle: Klucel (hydroxypropylcellulose) (HPC)
  T/C: 101 % of control
dose: 100.0 mg/kg/injection, schedule: Q01DX001 (ip), vehicle: Klucel (hydroxypropylcellulose) (HPC)
  T/C: 99 % of control
dose: 200.0 mg/kg/injection, schedule: Q01DX001 (ip), vehicle: Klucel (hydroxypropylcellulose) (HPC)
  T/C: 100 % of control

## COc1ccc(N2C(=S)N(c3cccc(Cl)c3Cl)C(=O)C(N=Nc3ccccc3Cl)C2O)cc1 (configuration not stated)
dose: 100.0 mg/kg/injection, schedule: Q04DX003 (ip), vehicle: distilled water + alcohol
  T/C: 102 % of control
dose: 200.0 mg/kg/injection, schedule: Q04DX003 (ip), vehicle: distilled water + alcohol
  T/C: 99 % of control
dose: 400.0 mg/kg/injection, schedule: Q04DX003 (ip), vehicle: distilled water + alcohol
  T/C: 97 % of control

## CCOC(=O)Nc1c(CCO)n[nH]c1C
[4]
  T/C: 108 % of control
[5]
  T/C: 101 % of control
[6]
  T/C: 97 % of control

## Cc1c[nH]c2nc(C)n(-c3ccccc3)c(=N)c12
[7]
  T/C: 100 % of control
[8]
  T/C: 93 % of control
[9]
  T/C: 101 % of control and 96 % of control

## CCN(CC)C(=S)SC(=S)N(CC)CC
[3]
  T/C: 108 % of control
[10]
  T/C: 104 % of control
[11]
  T/C: 103 % of control

## S=C1N(c2ccc(Br)cc2)C2=Nc3ccccc3SC(=C2N=Nc2ccc(Br)cc2)N1c1ccc(Cl)cc1
[4]
  T/C: 93 % of control
[5]
  T/C: 86 % of control
[6]
  T/C: 91 % of control

## Nc1c(Cl)sc2ccccc2c1=O
[4]
  T/C: 91 % of control
[5]
  T/C: 91 % of control
[6]
  T/C: 104 % of control

## Cc1cc(NC(=S)SCc2ccc(Cl)cc2)ccc1F
[12]
  T/C: 109 % of control
[13]
  T/C: 100 % of control
[14]
  T/C: 94 % of control

## O=Cc1c[nH]c2ccc(Br)cc12
dose: 100.0 mg/kg/injection, schedule: Q01DX001 (ip), vehicle: other
  T/C: 100 % of control
dose: 200.0 mg/kg/injection, schedule: Q01DX001 (ip), vehicle: other
  T/C: 90 % of control
dose: 400.0 mg/kg/injection, schedule: Q01DX001 (ip), vehicle: other
  T/C: 100 % of control

## O=NNc1ccc(-c2ccc([N+](=O)[O-])cc2)cn1
dose: 3.12 mg/kg/injection, schedule: Q01DX009 (ip), vehicle: saline
  T/C: 170 % of control
dose: 6.25 mg/kg/injection, schedule: Q01DX009 (ip), vehicle: saline
  T/C: 108 % of control

## Cc1ccc(NC(=S)NNC(=S)NNc2ccccc2)cc1C
[15]
  T/C: 95 % of control
dose: 200.0 mg/kg/injection, schedule: Q01DX005 (ip), vehicle: Klucel (hydroxypropylcellulose) (HPC)
  T/C: 101 % of control
dose: 400.0 mg/kg/injection, schedule: Q01DX005 (ip), vehicle: Klucel (hydroxypropylcellulose) (HPC)
  T/C: 106 % of control

## O=C1OC2(CCCCC2)OC(=O)C1=C/C=C/c1ccc([N+](=O)[O-])o1
[16]
  T/C: 93 % of control
[17]
  T/C: 88 % of control
[18]
  T/C: 102 % of control
[1]
  T/C: 102 % of control
[2]
  T/C: 100 % of control

## Cc1ccc(NC(=S)SCc2ccc(Cl)cc2)cc1Br
dose: 50.0 mg/kg/injection, schedule: Q01DX009 (ip), vehicle: Klucel (hydroxypropylcellulose) (HPC)
  T/C: 105 % of control and 123 % of control
[12]
  T/C: 109 % of control
dose: 100.0 mg/kg/injection, schedule: Q01DX009 (ip), vehicle: Klucel (hydroxypropylcellulose) (HPC)
  T/C: 114 % of control
[13]
  T/C: 104 % of control
dose: 200.0 mg/kg/injection, schedule: Q01DX009 (ip), vehicle: Klucel (hydroxypropylcellulose) (HPC)
  T/C: 121 % of control and 122 % of control
[14]
  T/C: 90 % of control

## COc1cc(CBr)ccc1OCc1ccccc1
dose: 12.5 mg/kg/injection, schedule: Q01DX009 (ip), vehicle: distilled water + Tween-80
  T/C: 111 % of control
dose: 25.0 mg/kg/injection, schedule: Q01DX009 (ip), vehicle: distilled water + Tween-80
  T/C: 101 % of control
dose: 50.0 mg/kg/injection, schedule: Q01DX009 (ip), vehicle: distilled water + Tween-80
  T/C: 108 % of control
dose: 100.0 mg/kg/injection, schedule: Q01DX009 (ip), vehicle: distilled water + Tween-80
  T/C: 108 % of control

## N=Cc1c(O)n(C2CCCCC2)c(=O)n(C2CCCCC2)c1=O
[3]
  T/C: 100 % of control
[10]
  T/C: 95 % of control
[11]
  T/C: 100 % of control

## O=C(CCN1CCOCC1)Nc1ccc(F)cc1F
[4]
  T/C: 99 % of control
[5]
  T/C: 94 % of control
[6]
  T/C: 94 % of control

## COc1ccc(C2c3cc4c(cc3OC(C)(N3CCCC3)C2C)OCO4)c(OC)c1OC (configuration not stated)
dose: 60.0 mg/kg/injection, schedule: Q01DX005 (ip), vehicle: saline with Tween-80
  T/C: 100 % of control
dose: 120.0 mg/kg/injection, schedule: Q01DX005 (ip), vehicle: saline with Tween-80
  T/C: 95 % of control
dose: 240.0 mg/kg/injection, schedule: Q01DX005 (ip), vehicle: saline with Tween-80
  T/C: 96 % of control

## c1cc(CSC2=NCCN2)c2cccc(CSC3=NCCN3)c2c1
[7]
  T/C: 103 % of control
[8]
  T/C: 107 % of control
[9]
  T/C: 103 % of control and 112 % of control

## CCCn1c(C)nc2c(N)cc(C)cc21
[8]
  T/C: 101 % of control
[9]
  T/C: 94 % of control
[15]
  T/C: 97 % of control

## CCOC(=O)/C=C(\C)SC1=CC(=O)c2ccccc2C1=O
[16]
  T/C: 86 % of control
[17]
  T/C: 94 % of control
[18]
  T/C: 99 % of control and 122 % of control
[1]
  T/C: 100 % of control and 111 % of control
[2]
  T/C: 100 % of control and 107 % of control

## C=C1C(=O)OC2C1C(OC(=O)/C(C)=C\C)CC(C)=C1C(=O)C3OC3(C)C12O (configuration not stated)
dose: 12.5 mg/kg/injection, schedule: Q01DX005 (ip), vehicle: saline + alcohol
  T/C: 115 % of control
dose: 25.0 mg/kg/injection, schedule: Q01DX005 (ip), vehicle: saline + alcohol
  T/C: 116 % of control
dose: 50.0 mg/kg/injection, schedule: Q01DX005 (ip), vehicle: saline + alcohol
  T/C: 115 % of control

## COc1cc2c(c(OC)c1OC)-c1c(cc3c(c1OC)OCO3)CC(C)C(C)(O)C2OC(=O)c1ccccc1 (configuration not stated)
dose: 11.25 mg/kg/injection, schedule: Q01DX009 (ip), vehicle: saline + alcohol
  T/C: 104 % of control
dose: 22.5 mg/kg/injection, schedule: Q01DX009 (ip), vehicle: saline + alcohol
  T/C: 104 % of control
dose: 45.0 mg/kg/injection, schedule: Q01DX009 (ip), vehicle: saline + alcohol
  T/C: 95 % of control
dose: 90.0 mg/kg/injection, schedule: Q01DX009 (ip), vehicle: saline + alcohol
  T/C: 97 % of control

## NC(=O)C(F)C(N)C(=O)O (configuration not stated)
dose: 12.5 mg/kg/injection, schedule: Q01DX009 (ip), vehicle: suspension in saline
  T/C: 100 % of control
dose: 25.0 mg/kg/injection, schedule: Q01DX009 (ip), vehicle: suspension in saline
  T/C: 103 % of control
[12]
  T/C: 97 % of control

## CCOC(=O)NCCCCl
[19]
  T/C: 99 % of control
[20]
  T/C: 101 % of control
[21]
  T/C: 107 % of control

## CCCCN(N=O)C(C)=O
dose: 100.0 mg/kg/injection, schedule: Q04DX002 (ip), vehicle: saline with Tween-80
  T/C: 101 % of control
dose: 200.0 mg/kg/injection, schedule: Q04DX002 (ip), vehicle: saline with Tween-80
  T/C: 98 % of control

## COc1cc(C(C)(C)C)c2oc3c(c2c1)C(=O)C(C(C)(C)C)=CC3(OC)OC
[19]
  T/C: 104 % of control
[20]
  T/C: 100 % of control
[21]
  T/C: 97 % of control

## CC1(C)N=C(NN=C2CCCCC2)SP1(=O)NNc1ncccn1 (configuration not stated)
dose: 15.0 mg/kg/injection, schedule: Q01DX005 (ip), vehicle: Klucel (hydroxypropylcellulose) (HPC)
  T/C: 102 % of control
dose: 30.0 mg/kg/injection, schedule: Q01DX005 (ip), vehicle: Klucel (hydroxypropylcellulose) (HPC)
  T/C: 103 % of control
dose: 60.0 mg/kg/injection, schedule: Q01DX005 (ip), vehicle: Klucel (hydroxypropylcellulose) (HPC)
  T/C: 98 % of control and 99 % of control
